Data as given in patent US20100210567A1, “USE OF A TUFTSIN AS A THERAPEUTIC AGENT” (priority 2007, published 2010).
Residues, ends and D or L forms follow the SMILES beside them.

Test system: drug-resistant Mycobacterium tuberculosis
Details: peptide 10 micrograms per ml, seven days

In the case of C[C@@H](O)[C@H](N)C(=O)N[C@@H](CCCCN)C(=O)N1CCC[C@H]1C(=O)N[C@@H](CCCNC(=N)N)C(=O)O [Tuftsin, Thr-Lys-Pro-Arg-OH] (H-TKPR-OH), the “% inhibition” value is reported as 0.0%.
